In patent US12085575B2, “Compositions and methods for detecting proteinopathies” (BOARD OF SUPERVISORS OF LOUISIANA STATE UNIVERSITY AND …, priority 2011, dated 2024):

Experiments:
[1] = tested on: polyubiquitylated proteins; experiment: UV-induced degradation of polyubiquitylated proteins in organotypic cerebellar brain slices; type: cell-based, mice; details: Bafilomycin A1 18 hrs, UV 150 mJ
Description: Experiments were conducted to determine if UV would induce degradation of the ubiquitin-conjugated cellular proteins in A-T organotypic brain slices grown in culture, similar to the findings described herein for A-T cells (See FIGS. 8A-8B). Two-month-old mice were used irrespective of the gender. Cerebellar organotypic brain slices (400 μm thick) from three mice were obtained using a McIlwain tissue chopper (The Mickle Lab Eng. Co. Ltd). Slices from two A-T mice and three ATM+/− mice were pooled and randomly placed on Millicell culture plate inserts (Millipore, MA). Brain slices were then incubated for 1 day in OptiMem-based medium at 37° C. in a humidified atmosphere of 5% CO2 and 95% air. One day later, slices were treated with Bafilomycin A1 for 18 hrs. Slices were then exposed to UV (150 mJ)) or left untreated. After three hours, tissue lysates were prepared as described herein. Lysates were then analyzed by Western analysis using anti-ubiquitin antibody as described herein, and the results shown in FIG. 17A. Intensity of the total polyubiquitylated proteins and free ubiquitin was quantitated using BioRad Quantity One software. All control values (−UV and +Bafl) were normalized to 100%, and values for experimental treatments were expressed as percent variations over control to give the results shown in FIG. 17B. […]

[2] = tested on: polyubiquitylated proteins; experiment: Camptothecin-induced degradation of polyubiquitylated proteins in A-T cells; type: cell-based, human; details: CPT 10 μm with Bafl 1 nm, 24 hr
Description: To test the generality of this observation, the anticancer drug camptothecin (CPT), a genotoxic agent (37, 48-50), which is known to sensitize A-T cells (37), like UV, was used to induce degradation of polyubiquitylated proteins in A-T cells. In FIG. 8E, A-T cells were treated with camptothecin (CPT; 10 μm) in the presence or absence of Bafl (1 nm) for 24 hr. Ubiquitin conjugated proteins using anti-ubiquitin antibodies were detected as described herein for FIG. 8A. The experiment was repeated three times.

CO/C1=C\C(C)=C\[C@@H](C)[C@@H](O)[C@@H](C)C/C(C)=C/C=C/[C@H](OC)[C@@H]([C@@H](C)[C@@H](O)[C@H](C)[C@@]2(O)C[C@@H](O)[C@H](C)[C@@H](C(C)C)O2)OC1=O [Bafilomycin A1]
UV-mediated degradation of polyubiquitylated proteins ([1]; A-T brain slices): failed to protect
UV-induced degradation of polyubiquitylated proteins ([1]; ATM+/− brain slices): markedly protected
CPT-mediated degradation of polyubiquitylated proteins [2]: failed to protect
